The nature of data set [1]: Rat brain free fraction (Fu) measurement by equilibrium dialysis. As to conditions: male, Sprague-Dawley, brain homogenate (25% w/v in PBS), pH 7.4.
Protocol: The Brain free faction was carried out in duplicate at a single concentration of 1 μM after 4 h of equilibrium dialysis.
Male Sprague-Dawley Rat (Harlan, Bresso, Italy) brain homogenate were prepared in PBS, pH 7.4 at 25% w/vy using a Precellys 24-dual tissue homogenizer (BERTIN technologies, Montigny-le-Bretonneux, France).
350 μL PBS pH 7.4 was loaded in the other chamber of the insert. The Red device reusable base counting insert containing insert with both samples and buffer was sealed and incubated during 4 h at 37° C., 300 rpm, on an orbital shaker.
At the end of the incubation, all brain samples were diluted 1:1 with PBS and PBS samples were diluted 1:1 with control brain homogenate. All samples were then diluted 1:3 with an internal standard (dextromethorphan 10 ng/mL in acetonitrile, Sigma, St Louis, United states), mixed and centrifuged 5 min at 3000 rpm at 4° C. Supernatant was diluted 1:2 with 0.1% formic acid in water (Biosolve, Dieuze, France) before analysis by LC/MS/MS. The LC system used was an Agilent 1290 (Agilent, Santa Clara, United states) coupled with a API5000 mass spectrometer (ABSciex, Framingham, United states). The software was analyst 1.5.2. (Agilent, Santa Clara, United states), the analytical column was an Aquity UPLC HSS T3 (30×2.1 mm, 1.8 μm, Waters, Saint-Quentin, France) operated at 40° C. Analysis were performed in the gradient described below. Gradient used for LC MS/MS
The Fu brain (%) was calculated using the following equation Fu brain(%)=(1/(1+((1/((fu homogenate)−1)×D)))×100 Where Fu homogenate=peak area ratio buffer/peak area ratio brain and D=dilution factor of the homogenate.
The target of a further data set is rat MAO-A enzyme (Rattus norvegicus (Rat), UniProt P21396). As to the kind of experiment: Rat MAO-A binding, competition for [3H]Ro 41-1049 in rat cerebral cortex. The note with it: for inhibition at 0.01 µM: 10 nM test compound, 10 nM [3H]Ro 41-1049, read-out: Rat MAO-A Binding INHIB 10 nM; for inhibition at 0.1 µM: 100 nM test compound, 10 nM [3H]Ro 41-1049, read-out: Rat MAO-A Binding INHIB 100 nM. How it is done: Compound selectivity for Tau protein was assessed as compared to a broad panel of receptors, enzymes and ion channels. Selectivity profiling of 10 μM compounds against a panel of 81 targets (n=1 with data in duplicate) was performed. Compounds affinity for rat MAO-A enzyme was assessed in rat cerebral cortex by competition experiment for 10 nM [^3H]Ro 41-1049 and increasing concentrations of test compounds. Compounds affinity for human MAO-A enzyme (1 μg/assay, Sigma-Aldrich, Diegem, Belgium) was assessed by saturation binding experiment performed as described above with [^3H]compounds.
Chain of rat MAO-A enzyme (P21396 whole entry): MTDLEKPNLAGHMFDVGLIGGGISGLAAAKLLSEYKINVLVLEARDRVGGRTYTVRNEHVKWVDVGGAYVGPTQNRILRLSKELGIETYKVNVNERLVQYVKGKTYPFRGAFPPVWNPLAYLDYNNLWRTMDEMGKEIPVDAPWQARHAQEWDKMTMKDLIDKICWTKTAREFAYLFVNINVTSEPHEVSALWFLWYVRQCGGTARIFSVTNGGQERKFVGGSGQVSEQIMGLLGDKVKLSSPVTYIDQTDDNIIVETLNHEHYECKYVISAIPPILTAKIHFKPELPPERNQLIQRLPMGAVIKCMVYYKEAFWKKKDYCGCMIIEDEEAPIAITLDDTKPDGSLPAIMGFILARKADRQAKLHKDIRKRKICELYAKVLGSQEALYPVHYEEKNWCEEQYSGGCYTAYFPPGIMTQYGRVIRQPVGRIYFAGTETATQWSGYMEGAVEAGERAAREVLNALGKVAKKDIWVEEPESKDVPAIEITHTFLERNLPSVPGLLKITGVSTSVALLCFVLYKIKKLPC

Turning to `Oc1ccc(-c2ccc3c(n2)[nH]c2ccncc23)cn1` [Example 6, 5-(9H-pyrrolo[2,3-b:4,5-c′]dipyridin-2-yl)pyridin-2-ol], the fraction unbound at 4 h, 1 μM in data set [1] is 0.098.

Consider `Cc1cc2[nH]c3nc(-c4ccc(F)nc4)ccc3c2cn1` [Example 45, 2-(6-fluoropyridin-3-yl)-7-methyl-9H-pyrrolo[2,3-b:4,5-c′]dipyridine], for which the fraction unbound at 4 h, 1 μM in data set [1] was 0.011.

For `CNC(=O)c1ccc(-c2ccc3c(n2)[nH]c2ccncc23)cn1` [Example 11, N-methyl-5-(9H-pyrrolo[2,3-b:4,5-c′]dipyridin-2-yl)pyridine-2-carboxamide], on rat MAO-A enzyme, the inhibition at 0.01 µM was -12% and the inhibition at 0.1 µM is -7%. For the same compound, in data set [1], the fraction unbound at 4 h, 1 μM is 0.028.

In turn, `c1cc2c(cn1)[nH]c1nc(-c3cn[nH]c3)ccc12` [Example 52, 2-(1H-pyrazol-4-yl)-9H-pyrrolo[2,3-b:5,4-c′]dipyridine] yielded a free fraction (fraction unbound) at 4 h, 1 μM in data set [1] of 0.026.

On to `O=C(NCCF)c1ccc(-c2ccc3c(n2)[nH]c2ccncc23)cn1` [Example 29, N-(2-fluoroethyl)-5-(9H-pyrrolo[2,3-b:4,5-c′]dipyridin-2-yl)picolinamide], for which, on rat MAO-A enzyme, the inhibition at 0.01 µM was 8% and the inhibition at 0.1 µM came out at 23%.

In the case of `Fc1ccc(-c2ccc3c(n2)[nH]c2ncccc23)cn1` [Example 57, 2-(6-fluoropyridin-3-yl)-9H-pyrrolo[2,3-b:5,4-b′]dipyridine], at rat MAO-A enzyme, the inhibition at 0.01 µM was determined as 1% and the inhibition at 0.1 µM stood at 8%. The free fraction (fraction unbound) at 4 h, 1 μM in data set [1] is 0.013.

Consider `CNc1ccc(-c2ccc3c(n2)[nH]c2cnccc23)cn1` [Example 55, N-methyl-5-(9H-pyrrolo[2,3-b:5,4-c′]dipyridin-2-yl)pyridin-2-amine], for which, on rat MAO-A enzyme, the inhibition at 0.01 µM came out at 6% and the inhibition at 0.1 µM was 9%. Besides, the fraction unbound at 4 h, 1 μM in data set [1] amounted to 0.005.

On to `c1cc2[nH]c3nc(-c4cnc(N5CCOCC5)s4)ccc3c2cn1` [Example 32, 4-(5-(9H-pyrrolo[2,3-b:4,5-c′]dipyridin-2-yl)thiazol-2-yl)morpholine], for which, on rat MAO-A enzyme, the inhibition at 0.01 µM stood at 7% and the inhibition at 0.1 µM worked out at 46%. The fraction unbound at 4 h, 1 μM in data set [1] came out at 0.005.

For `COCCNC(=O)c1ccc(-c2ccc3c(n2)[nH]c2ccncc23)cn1` [Example 30, N-(2-methoxyethyl)-5-(9H-pyrrolo[2,3-b:4,5-c′]dipyridin-2-yl)picolinamide], at rat MAO-A enzyme, the inhibition at 0.01 µM is 2% and the inhibition at 0.1 µM was 9%.

The compound `c1cc2[nH]c3nc(-c4ccn[nH]4)ccc3c2cn1` [Example 15, 2-(1H-pyrazol-3-yl)-9H-pyrrolo[2,3-b:4,5-c′]dipyridine] displayed a fraction unbound at 4 h, 1 μM in data set [1] of 0.056.

For the compound `COCCNc1ncc(-c2ccc3c(n2)[nH]c2ccncc23)cn1` [Example 22, N-(2-methoxyethyl)-5-(9H-pyrrolo[2,3-b:4,5-c′]dipyridin-2-yl)pyrimidin-2-amine], on rat MAO-A enzyme, the inhibition at 0.01 µM was 8% and the inhibition at 0.1 µM worked out at 15%.

`c1cc(N2CCN(c3ccc4c(n3)[nH]c3ccncc34)CC2)ccn1` [Example 14, 2-(4-(pyridin-4-yl)piperazin-1-yl)-9H-pyrrolo[2,3-b:4,5-c′]dipyridine] came in with a fraction unbound at 4 h, 1 μM in data set [1] of 0.019.

The compound `COc1cc(-c2ccc3c(n2)[nH]c2ccncc23)ccn1` [Example 2, 2-(2-methoxypyridin-4-yl)-9H-pyrrolo[2,3-b:4,5-c′]dipyridine] returned a fraction unbound at 4 h, 1 μM in data set [1] of 0.009.

Regarding `Cc1cc2[nH]c3nc(-c4cnn(C)c4)ccc3c2cn1` [Example 47, 7-methyl-2-(1-methyl-1H-pyrazol-4-yl)-9H-pyrrolo[2,3-b: 4,5-c′]dipyridine], at rat MAO-A enzyme, the inhibition at 0.01 µM is -1% and the inhibition at 0.1 µM amounted to 10%. In addition, the fraction unbound at 4 h, 1 μM in data set [1] was determined as 0.028.

In the case of `FCCn1cc(-c2ccc3c(n2)[nH]c2ccncc23)cn1` [Example 25, 2-[1-(2-fluoroethyl)-1H-pyrazol-4-yl]-9H-pyrrolo[2,3-b: 4,5-c′]dipyridine], on rat MAO-A enzyme, the inhibition at 0.01 µM stood at 13% and the inhibition at 0.1 µM is 2%. In data set [1], this compound showed a fraction unbound at 4 h, 1 μM of 0.087.

With `COc1cc2[nH]c3nc(-c4ccc(F)nc4)ccc3c2cn1` [Example 36, 2-(6-fluoropyridin-3-yl)-7-methoxy-9H-pyrrolo[2,3-b:4,5-c′]dipyridine], the fraction unbound at 4 h, 1 μM in data set [1] is 0.005.

Turning to `CNc1ccc(C(=O)Nc2ccc3c(n2)[nH]c2ccncc23)cn1` [Example 35, 6-(methylamino)-N-(9H-pyrrolo[2,3-b:4,5-c′]dipyridin-2-yl)nicotinamide], in data set [1], the fraction unbound at 4 h, 1 μM came to 0.005.

Consider `CNC(=O)c1ccc(-c2ccc3c(n2)[nH]c2cc(C)ncc23)cn1` [Example 46, N-methyl-5-(7-methyl-9H-pyrrolo[2,3-b:4,5-c′]dipyridin-2-yl)picolinamide], for which, on rat MAO-A enzyme, the inhibition at 0.01 µM was determined as 11% and the inhibition at 0.1 µM stood at 12%.

For the compound `COc1cnn(-c2ccc3c(n2)[nH]c2ccncc23)c1` [Example 31, 2-(4-methoxy-1H-pyrazol-1-yl)-9H-pyrrolo[2,3-b:4,5-c′]dipyridine], at rat MAO-A enzyme, the inhibition at 0.01 µM worked out at 16% and the inhibition at 0.1 µM was determined as 39%. In data set [1], this compound had a fraction unbound at 4 h, 1 μM of 0.007.

With `COc1ccc(-c2ccc3c(n2)[nH]c2ccncc23)cn1` [Example 5, 2-(6-methoxypyridin-3-yl)-9H-pyrrolo[2,3-b:4,5-c′]dipyridine], at rat MAO-A enzyme, the inhibition at 0.01 µM was found to be 8% and the inhibition at 0.1 µM turned out to be 39%. For the same compound, the fraction unbound at 4 h, 1 μM in data set [1] stood at 0.006.

With `CNC(=O)c1ccc(-c2ccc3c(n2)[nH]c2cnccc23)cn1` [Example 53, N-methyl-5-(9H-pyrrolo[2,3-b:5,4-c′]dipyridin-2-yl)picolinamide], on rat MAO-A enzyme, the inhibition at 0.01 µM was -10% and the inhibition at 0.1 µM is -13%. In data set [1], this compound returned a fraction unbound at 4 h, 1 μM of 0.015.

Take `CNC(=O)c1ccc(-c2ccc3c(n2)[nH]c2cc(COC)ncc23)cn1` [Example 49, 5-(7-(methoxymethyl)-9H-pyrrolo[2,3-b:4,5-c′]dipyridin-2-yl)-N-methylpicolinamide]: on rat MAO-A enzyme, the inhibition at 0.01 µM is -9% and the inhibition at 0.1 µM was -4%.

On to `Nc1ncc(-c2ccc3c(n2)[nH]c2ccncc23)cc1F` [Example 12, 3-fluoro-5-(9H-pyrrolo[2,3-b:4,5-c′]dipyridin-2-yl)pyridin-2-amine], for which, at rat MAO-A enzyme, the inhibition at 0.01 µM came out at 8% and the inhibition at 0.1 µM stood at 13%. Besides, the fraction unbound at 4 h, 1 μM in data set [1] was determined as 0.005.

For `COCc1cc2[nH]c3nc(-c4cnn(C)c4)ccc3c2cn1` [Example 50, 7-(methoxymethyl)-2-(1-methyl-1H-pyrazol-4-yl)-9H-pyrrolo[2,3-b: 4,5-c′]dipyridine], at rat MAO-A enzyme, the inhibition at 0.01 µM came to 1% and the inhibition at 0.1 µM worked out at 7%. The same compound yielded a fraction unbound at 4 h, 1 μM in data set [1] of 0.04.

For `Cn1cc(-c2ccc3c(n2)[nH]c2ccncc23)cn1` [Example 4, 2-(1-methyl-1H-pyrazol-4-yl)-9H-pyrrolo[2,3-b:4,5-c′]dipyridine], at rat MAO-A enzyme, the inhibition at 0.01 µM is 21% and the inhibition at 0.1 µM worked out at 50%. The compound also returned a fraction unbound at 4 h, 1 μM in data set [1] of 0.075.

`c1cc2[nH]c3nc(-c4ccc(N5CCOCC5)nc4)ccc3c2cn1` [Example 21, 4-(5-(9H-pyrrolo[2,3-b:4,5-c′]dipyridin-2-yl)pyridin-2-yl)morpholine] displayed a fraction unbound at 4 h, 1 μM in data set [1] of 0.005.

Take `Cc1cc(-c2ccc3c(n2)[nH]c2ccncc23)n[nH]1` [Example 24, 2-(5-methyl-1H-pyrazol-3-yl)-9H-pyrrolo[2,3-b:4,5-c′]dipyridine]: on rat MAO-A enzyme, the inhibition at 0.01 µM amounted to 7% and the inhibition at 0.1 µM turned out to be 9%. The compound also gave a fraction unbound at 4 h, 1 μM in data set [1] of 0.02.

With `c1cc2[nH]c3nc(-c4cn[nH]c4)ccc3c2cn1` [Example 9, 2-(1H-pyrazol-4-yl)-9H-pyrrolo[2,3-b:4,5-c′]dipyridine], on rat MAO-A enzyme, the inhibition at 0.01 µM was -5% and the inhibition at 0.1 µM came out at 7%. Further, in data set [1], the fraction unbound at 4 h, 1 μM stood at 0.036.

`c1cc2[nH]c3nc(-c4cnc(N5CCOCC5)nc4)ccc3c2cn1` [Example 10, 4-(5-(9H-pyrrolo[2,3-b:4,5-c′]dipyridin-2-yl)pyrimidin-2-yl)morpholine]: the fraction unbound at 4 h, 1 μM in data set [1] came to 0.011.

For the compound `c1cnc(N2CCN(c3ccc4c(n3)[nH]c3ccncc34)CC2)nc1` [Example 13, 2-(4-(pyrimidin-2-yl)piperazin-1-yl)-9H-pyrrolo[2,3-b:4,5-c′]dipyridine], the fraction unbound at 4 h, 1 μM in data set [1] turned out to be 0.011.

Consider `COc1ncc(-c2ccc3c(n2)[nH]c2ccncc23)cc1F` [Example 7, 2-(5-fluoro-6-methoxypyridin-3-yl)-9H-pyrrolo[2,3-b:4,5-c′]dipyridine], for which the fraction unbound at 4 h, 1 μM in data set [1] amounted to 0.005.

For the compound `CN(C)c1cc2[nH]c3nc(-c4cnn(C)c4)ccc3c2cn1` [Example 44, N,N-dimethyl-2-(1-methyl-1H-pyrazol-4-yl)-9H-pyrrolo[2,3-b:4,5-c′]dipyridin-7-amine], at rat MAO-A enzyme, the inhibition at 0.01 µM turned out to be 2% and the inhibition at 0.1 µM was determined as 9%.

Turning to `Cn1cc(-c2ccc3c(n2)[nH]c2cnccc23)cn1` [Example 51, 2-(1-methyl-1H-pyrazol-4-yl)-9H-pyrrolo[2,3-b:5,4-c′]dipyridine], at rat MAO-A enzyme, the inhibition at 0.01 µM is 3% and the inhibition at 0.1 µM worked out at 6%. In data set [1], this compound displayed a fraction unbound at 4 h, 1 μM of 0.045.

For the compound `Fc1ccc(-c2ccc3c(n2)[nH]c2cnccc23)cn1` [Example 54, 2-(6-fluoropyridin-3-yl)-9H-pyrrolo[2,3-b:5,4-c′]dipyridine], on rat MAO-A enzyme, the inhibition at 0.01 µM is 10% and the inhibition at 0.1 µM worked out at 12%. The fraction unbound at 4 h, 1 μM in data set [1] is 0.019.

What is called fraction unbound is the share of the substance not bound to proteins or other matrix. High values mean much free substance, low ones little free substance.

The values above are taken from US11312716B2, “9H-pyrrolo-dipyridine derivatives” (UCB Biopharma SRL, priority 2015, dated 2022).
